pEC50: −log10 of the molar value.
What was measured:
[1] = Rat oral pharmacokinetics; set-up: species or system Male Sprague Dawley rats; conditions: male, Sprague Dawley, in vivo
Protocol: Rat Oral Pharmacokinetics
Test compounds were formulated in solution formulations (10 w/v % Sulfobutylether-p-cyclodextrin; 90% w/v % 50 mM Citrate Buffer) and administered orally to a group of three Male Sprague Dawley rats. The animals were fasted overnight prior to dose administration and up to four hours after dosing. The test articles were administrated by oral gavage at a dose volume of 5 mL-eq/kg.
(§1) Blood samples were collected at predose and 0.25, 0.5, 1, 2, 4, 6, 8, 12, 24, 48 and 72 hours post dose into K2EDTA tubes and stored on wet ice until processed. Whole blood was processed to plasma by centrifugation (3500 rpm for 10 minutes at 5° C.) within 30 minutes of collection. Plasma samples were placed in Micronic 96 well tubes and stored at −80° C. until transferred. Plasma concentration of the test compounds was determined by LC-MS/MS. Pharmacokinetic parameters were estimated using non-compartment model analysis. The maximum observed concentration (Cmax) and area under the curve from time of dosing to last measured concentration (AUClast) were calculated and reported.

[2] = tested on: GP2D (KRAS G12D) cells; assay: 2D cell viability assay (CellTiter-Glo); type: cell-based; conditions: 96 h; GP2D cells, 4 days, CellTiter-Glo luminescence; read-out: G12D 2D EC50
Procedure, shortened: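 Viability was read by CellTiter-Glo after 4 days at 37 °C of 2D culture of KRAS G12D GP2D cells (1000/well, RPMI, 10% FBS) on pre-spotted threefold compound dilutions. EC50 was fitted with a sigmoidal dose-response model as the point of half-maximal luminescence loss.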

[3] = Mouse oral cassette pharmacokinetics; type: in vivo, male CD-1 mice; conditions: male, CD-1, mouse, in vivo, po, 30 mg/kg
Protocol: Mouse Oral Cassette Pharmacokinetics
Test compounds (1-3 compounds per cassette) were formulated in solution formulations (10 w/v % Captisol in 50 mM Citrate buffer) and administered orally at 30 mg-eq./kg each compound to a group of four male CD-1 mice. The test articles were administrated by oral gavage at a dose volume of 10 mL-eq/kg.
as §1, with “at” for “at predose and 0.25,”, “3,” for “2, 4,”, “8,” for “8, 12, 24, 48”, “24” for “72”

## C#Cc1c(F)ccc2cc(N)nc(-c3c(F)c4c5c(nc(OC[C@@]67CCCN6C[C@H](F)C7)nc5c3F)N3C[C@H]5CC[C@@H]([C@H]3CCC4)N5Cc3oc(=O)oc3C)c12 (atropisomer, axis not shown; (aR)) [Example 73, 4-(((1S,4R,11S,15aR)-11-(3-amino-8-ethynyl-7-fluoroisoquinolin-1-yl)-10,12-difluoro-8-(((2R,7aS)-2-fluorotetrahydro-1H-pyrrolizin-7a(5H)-yl)methoxy)-2,3,4,5,13,14,15,15a-octahydro-1H-1,4-epiminoazepino[1′,2′:1,8]azocino[2,3,4-de]quinazolin-16-yl)methyl)-5-methyl-1,3-dioxol-2-one]
[1]; 7.5 mg/kg
  Rat Parent % F: 2%
  Rat Parent AUC: 0.3 µM·h
[2]
  pEC50: 9.09

## CCc1c(F)ccc2cc(O)cc(-c3c(F)c4c5c(nc(OC[C@@]67CCCN6C[C@H](F)C7)nc5c3F)N3C[C@H]5CC[C@@H]([C@H]3CCC4)N5Cc3oc(=O)oc3C)c12 (atropisomer, axis not shown; (aR)) [Example 77, 4-(((1S,4R,11R,15aR)-11-(8-ethyl-7-fluoro-3-hydroxynaphthalen-1-yl)-10,12-difluoro-8-(((2R,7aS)-2-fluorotetrahydro-1H-pyrrolizin-7a(5H)-yl)methoxy)-2,3,4,5,13,14,15,15a-octahydro-1H-1,4-epiminoazepino[1′,2′:1,8]azocino[2,3,4-de]quinazolin-16-yl)methyl)-5-methyl-1,3-dioxol-2-one]
[1]; 7.5 mg/kg
  Rat Parent AUC: 0.43 µM·h
[2]
  pEC50: 9.59

## C#Cc1c(F)ccc2cc(N)nc(-c3c(F)c4c5c(nc(OC[C@@]67CCCN6C[C@H](F)C7)nc5c3F)N3C[C@H]5CC[C@@H]([C@H]3CCC4)N5Cc3oc(=O)oc3CC)c12 (atropisomer, axis not shown; (aR)) [Example 79, 4-(((1S,4R,11S,15aR)-11-(3-amino-8-ethynyl-7-fluoroisoquinolin-1-yl)-10,12-difluoro-8-(((2R,7aS)-2-fluorotetrahydro-1H-pyrrolizin-7a(5H)-yl)methoxy)-2,3,4,5,13,14,15,15a-octahydro-1H-1,4-epiminoazepino[1′,2′:1,8]azocino[2,3,4-de]quinazolin-16-yl)methyl)-5-ethyl-1,3-dioxol-2-one]
[1]; 7.5 mg/kg
  Rat Parent AUC: 0.22 µM·h
[2]
  pEC50: 8.92

## C#Cc1c(F)ccc2cccc(-c3nc4c5c(nc(OC[C@@]67CCCN6C[C@H](F)C7)nc5c3F)N3C[C@H]5CC[C@H](N5)[C@H]3CCC4)c12 [Comp. Ex. 76, (6aR,7S,10R)-2-(8-ethynyl-7-fluoronaphthalen-1-yl)-1-fluoro-13-(((2R,7aS)-2-fluorotetrahydro-1H-pyrrolizin-7a(5H)-yl)methoxy)-5,6,6a,7,8,9,10,11-octahydro-4H-3,11a,12,14,15-pentaaza-7,10-methanocyclohepta[4,5]cycloocta[1,2,3-de]naphthalene, reference compound]
[1]; 5 mg/kg
  Rat Parent % F: 2%
  Rat Parent AUC: 0.059 µM·h
[3]
  Mouse Parent AUC (nM * h): 1,400 nM * h

## C#Cc1c(F)ccc2cccc(-c3nc4c5c(nc(OC[C@@]67CCCN6C[C@H](F)C7)nc5c3F)N3C[C@H]5CC[C@@H]([C@H]3CCC4)N5C(=O)OC(C)OC(=O)CCC)c12 (stereo partly drawn) [Example 25, 1-(butyryloxy)ethyl (6aR,7S,10R)-2-(8-ethynyl-7-fluoronaphthalen-1-yl)-1-fluoro-13-(((2R,7aS)-2-fluorotetrahydro-1H-pyrrolizin-7a(5H)-yl)methoxy)-5,6,6a,7,8,9,10,11-octahydro-4H-3,11a,12,14,15-pentaaza-7,10-methanocyclohepta[4,5]cycloocta[1,2,3-de]naphthalene-15-carboxylate]
[1]; 5 mg/kg
  Rat Parent % F: 1%
  Rat Parent AUC: 0.037 µM·h

## C#Cc1c(F)ccc2cc(N)cc(-c3nc4c5c(nc(OC[C@@]67CCCN6C[C@H](F)C7)nc5c3F)N3C[C@H]5CC[C@@H]([C@H]3CCC4)N5Cc3oc(=O)oc3CCC)c12 [Example 35, 4-(((6aR,7S,10R)-2-(3-amino-8-ethynyl-7-fluoronaphthalen-1-yl)-1-fluoro-13-(((2R,7aS)-2-fluorotetrahydro-1H-pyrrolizin-7a(5H)-yl)methoxy)-5,6,6a,7,8,9,10,11-octahydro-4H-3,11a,12,14,15-pentaaza-7,10-methanocyclohepta[4,5]cycloocta[1,2,3-de]naphthalen-15-yl)methyl)-5-propyl-1,3-dioxol-2-one]
[1]; 15 mg/kg
  Rat Parent % F: 5%
  Rat Parent AUC: 0.27 µM·h
[2]
  pEC50: 9.34

## C#Cc1c(F)ccc2cc(N)cc(-c3nc4c5c(nc(OC[C@@]67CCCN6C[C@H](F)C7)nc5c3F)N3C[C@H]5CC[C@@H]([C@H]3CCC4)N5Cc3oc(=O)oc3CCCCCC)c12 [Example 36, 4-(((6aR,7S,10R)-2-(3-amino-8-ethynyl-7-fluoronaphthalen-1-yl)-1-fluoro-13-(((2R,7aS)-2-fluorotetrahydro-1H-pyrrolizin-7a(5H)-yl)methoxy)-5,6,6a,7,8,9,10,11-octahydro-4H-3,11a,12,14,15-pentaaza-7,10-methanocyclohepta[4,5]cycloocta[1,2,3-de]naphthalen-15-yl)methyl)-5-hexyl-1,3-dioxol-2-one]
[1]; 7.5 mg/kg
  Rat Parent % F: 1.9%
  Rat Parent AUC: 0.052 µM·h
[2]
  pEC50: 9.31

## C#Cc1c(F)ccc2cc(O)cc(-c3nc4c5c(nc(OC[C@@]67CCCN6C[C@H](F)C7)nc5c3F)N3C[C@H]5CC[C@@H]([C@@H]3[C@H]3CCC[C@@H]43)N5Cc3oc(=O)oc3C)c12 [Example 42, 4-(((3aS,3bS,4S,7R,14bR)-13-(8-ethynyl-7-fluoro-3-hydroxynaphthalen-1-yl)-12-fluoro-10-(((2R,7aS)-2-fluorotetrahydro-1H-pyrrolizin-7a(5H)-yl)methoxy)-2,3,3a,3b,4,5,6,7,8,14b-decahydro-1H-8a,9,11,14,15-pentaaza-4,7-methanocyclopenta[d]naphtho[1,8-ab]heptalen-15-yl)methyl)-5-methyl-1,3-dioxol-2-one]
[1]; 7.5 mg/kg
  Rat Parent % F: 0.3%
  Rat Parent AUC: 0.2 µM·h
[2]
  pEC50: 8.77

## C#Cc1c(F)ccc2cc(N)cc(-c3nc4c5c(nc(OC[C@@]67CCCN6C[C@H](F)C7)nc5c3F)N3C[C@H]5CC[C@@H]([C@H]3CCC4)N5Cc3oc(=O)oc3C(C)C)c12 [Example 80, 4-(((6aR,7S,10R)-2-(3-amino-8-ethynyl-7-fluoronaphthalen-1-yl)-1-fluoro-13-(((2R,7aS)-2-fluorotetrahydro-1H-pyrrolizin-7a(5H)-yl)methoxy)-5,6,6a,7,8,9,10,11-octahydro-4H-3,11a,12,14,15-pentaaza-7,10-methanocyclohepta[4,5]cycloocta[1,2,3-de]naphthalen-15-yl)methyl)-5-isopropyl-1,3-dioxol-2-one]
[1]; 7.5 mg/kg
  Rat Parent % F: 2.1%
  Rat Parent AUC: 0.057 µM·h
[2]
  pEC50: 9.43

## C#Cc1c(F)ccc2cc(N)cc(-c3nc4c5c(nc(OC[C@@]67CCCN6C[C@H](F)C7)nc5c3F)N3C[C@H]5CC[C@@H]([C@H]3CCC4)N5Cc3oc(=O)oc3C(C)(C)C)c12 [Example 81, 4-(((6aR,7S,10R)-2-(3-amino-8-ethynyl-7-fluoronaphthalen-1-yl)-1-fluoro-13-(((2R,7aS)-2-fluorotetrahydro-1H-pyrrolizin-7a(5H)-yl)methoxy)-5,6,6a,7,8,9,10,11-octahydro-4H-3,11a,12,14,15-pentaaza-7,10-methanocyclohepta[4,5]cycloocta[1,2,3-de]naphthalen-15-yl)methyl)-5-(tert-butyl)-1,3-dioxol-2-one]
[1]; 7.5 mg/kg
  Rat Parent % F: 0.4%
  Rat Parent AUC: 0.011 µM·h
[2]
  pEC50: 9.20
